Experiment [1] deals with Notch target genes (Hes1, Hey1, HeyL and TGFβ1). Kind of experiment: qRT-PCR of Notch target genes in MC3T3-E1 osteoblasts FACS-separated from cocultures. It is filed as cell-based, mouse. The settings on record: osteoblasts FACS-separated from JAG1 OE coculture; FIG. 7B. How it is done: For gene expression analysis, MC3T3-E1 cells were grown to confluence in 10 cm culture dishes. The 2×10^5 GFP+ control or JAG1 OE cells were seeded onto the plate in osteoblast media. Cell sorting was performed to purify the GFP-negative MC3T3-E1 osteoblasts 5 days after initial coculture. RNA from FACS-separated MC3T3-E1 cells was collected in RLT lysis buffer, extracted with RNeasy Mini Kit (QIAGEN), and subjected to quantitative RT-PCR.
RNA from in vitro cultured cells or flow cytometry-separated cells was collected in RLT lysis buffer and extracted with RNeasy mini kit (Qiagen). RNA extraction from in vivo tissue samples was performed using Trizol (Invitrogen) according to the manufacturer's protocol. cDNA synthesis of RNA was performed using Superscript III First-Strand (Invitrogen). Quantitative RT-PCR was performed using Power Syber Green PCR Master Mix (Applied Biosystems) with the ABI Prism 7900HT thermocycler (Applied Biosystems) according to the manufacturer's protocol. A standard curve for each gene was generated by serial dilutions of a standard. Values were then normalized by the amount of GAPDH or β-actin in each sample. For in vivo samples, species-specific primers were employed for gene expression analysis in the tumor compartment (human) versus stroma compartment (mouse).
A general note: Quantitative PCR measures a nucleic acid by following its amplification.

Experiment [2] deals with pre-osteoclast Raw 264.7 cells. Kind of experiment: Osteoclastogenesis coculture assay (TRAP staining). It is filed as cell-based, mouse. On the procedure: After seeding 5×10^4 control or JAG1 OE tumor cells/well into 12-well plates, murine pre-osteoclast Raw 264.7 (2×10^5 cells/well) or MOCP5 (5×10^5 cells/well) cells in media containing 30 ng/ml RANKL and DMSO or 1 μM MRK-003 were added the next day. Media were changed every 2 days. TRAP staining was performed on day 6 using a leukocyte acid phosphatase kit (Sigma). TRAP^+-multinucleated cells were scored as mature osteoclasts. The number of nuclei per osteoclast was quantified using TRAP-stained images. Mouse specific qRT-PCR primers were used to selectively quantify Raw264.7 osteoclast gene expression levels after 6 days of coculture (see Table 1 below).
For primary osteoclast coculture assays, bone marrow cells were flushed out from femora and tibiae of 4- to 6-week-old wild-type FVB mice and plated in basal culture medium overnight. The next day, nonadherent cells were added at 1×10^6/well to 12-well plates that were previously seeded with either control or JAG1 OE tumor cells supplemented with 50 ng/ml RANKL and 50 ng/ml M-CSF. Medium was changed every 3 days. TRAP staining and scoring were performed on days 10-12.

Experiment [3] deals with SCP28 tumor cells cocultured with MC3T3-E1 osteoblasts. Kind of experiment: Osteoblast coculture tumor cell quantification by luciferase assay. The experiment is classed as cell-based, human. The note with it: luciferase assay after 6 days; MRK-003 1 μM or 5 μM; anti-IL-6 0.5 and 1.0 μg/ml. How it is done: MC3T3-E1 cells were seeded at 2×10^5 cells/well in 12-well plates. After confluence was achieved, luciferase/GFP-labeled (GFP+) control and JAG1 OE cells were added at 1×10^4 cells/well in triplicate and treated with DMSO or 1 μM MRK-003. Media supplemented with appropriate drugs were changed every 2 days. After 6 days the coculture was subjected to a luciferase assay to selectively quantify the number of tumor cells. These values were normalized against luciferase quantification of 12-well plates seeded with tumor cells alone.
For transfection experiments, MC3T3-E1 osteoblasts were seeded at 2×10^5 cells/well in 12-well plates and grown to 95% confluence. […] Following 6 days, the coculture was lysed and subjected to a luciferase assay to selectively quantify the number of tumor cells. For gene expression analysis, RNA from cocultures was collected in RLT lysis buffer, extracted with RNeasy mini kit (Qiagen), and subjected to quantitative RT-PCR.
For in vitro experiments, GSI-IX (Calbiochem) and TGFβ Receptor 1 (EMD Biosciences 616451) were dissolved in DMSO. […] RNA and protein were collected and analyzed for JAGGED1 expression as described above. […]

Molecules are shown by their SMILES.

For the molecule `O=S1(=O)N[C@@]2(CN1CC(F)(F)F)[C@@H]1CC[C@H]2Cc2ccc(/C=C/CN3CCC(C(F)(F)F)CC3)cc2C1` [MRK-003], the “Notch target genes (Hes1, Hey1, HeyL and TGFβ1) mRNA in osteoblasts” value in experiment [1] is given as “downregulated”. Also, the “TRAP+ osteoclasts in JAG1 OE cocultures” value in experiment [2] (15-fold increase by JAG1 OE relative to controls, 1 μM MRK-003, FIG. 15A) is given as “essentially abolished”. In experiment [2] (JAG1 OE cocultures), the “mRNA expression of osteoclast differentiation markers in Raw 264.7 cells” value was “suppressed”. In experiment [2] (cocultures with Raw 264.7, FIG. 15C), the “osteoclast size and number of nuclei” value is given as “smaller osteoclasts with fewer nuclei”. Moreover, in experiment [2] (treatment 2 days after seeding, FIG. 15B), the “Acp5 (mouse gene encoding TRAP) mRNA levels, delayed initiation of treatment (Late)” value is on record as “failed to fully rescue”. Besides, in experiment [3], the “growth advantage of JAG1 OE tumor cells in osteoblast coculture” value is reported as “abolished”.
